Test results as given in ChEMBL document CHEMBL1201862, “PubChem BioAssay data set” (2004).
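Cells were grown in 96-well plates and exposed to each compound for 48 hours at five concentrations; endpoints were interpolated linearly between bracketing concentrations, or set to the highest concentration if not reached. The concentration for 50% growth inhibition is given as GI50.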 Active and inactive are the calls of the source. Cut-off read from the data, not from the text of the source: active = GI50 up to about 1.1 µM and inactive = higher.

Columns and labels:
Test in all cases: DTP human tumour cell line panel, 48 h
[1] = test system: IGROV-1
[2] = test system: HCT-116
[3] = test system: SW-620
[4] = test system: BT-549
[5] = test system: MOLT-4
[6] = test system: SK-OV-3
[7] = test system: SNB-19
[8] = test system: CAKI-1
[9] = test system: KM12
[10] = test system: HCT-15
[11] = test system: SK-MEL-2
[12] = test system: LOX IMVI
[13] = test system: SK-MEL-5
[14] = test system: NCI-H226
[15] = test system: TK-10
[16] = test system: HOP-62
[17] = test system: A549
[18] = test system: SF-295
[19] = test system: Malme-3M
[20] = test system: RXF 393

Row | SMILES | GI50 [1] | GI50 [2] | GI50 [3] | GI50 [4] | GI50 [5] | GI50 [6] | GI50 [7] | GI50 [8] | GI50 [9] | GI50 [10] | GI50 [11] | GI50 [12] | GI50 [13] | GI50 [14] | GI50 [15] | GI50 [16] | GI50 [17] | GI50 [18] | GI50 [19] | GI50 [20]
1 | CC[C@@]12CCCN3CC[C@]4(c5cccc(OC)c5N(C(C)=O)[C@@H]4CC1)[C@H]32 [ASPIDOSPERMINE] | 24.2 µM (inactive) | 44.9 µM (inactive) | > 100 µM (inactive) | 86.9 µM (inactive) | 25.3 µM (inactive) | > 100 µM (inactive) | > 100 µM (inactive) | > 100 µM (inactive) | 84.5 µM (inactive) | 79.3 µM | 90.4 µM (inactive) | 30.6 µM (inactive) | 44.3 µM (inactive) | 93.8 µM (inactive) | 56.5 µM (inactive) | > 100 µM (inactive) | > 100 µM (inactive) | 46.6 µM (inactive) | > 100 µM (inactive) | 60.4 µM (inactive)
2 | C=C1C(O)C2OC(=O)C(=C)C2C(OC(=O)/C(C)=C/C)CC2(C)OC2C2OC12 (stereo not given) | 6.15 µM (inactive) | 5.22 µM (inactive) | 8.04 µM (inactive) | 7.71 µM (inactive) | 0.634 µM (active) | 43.6 µM (inactive) | 19.5 µM (inactive) | 10.2 µM (inactive) | 2.86 µM (inactive) | 2.55 µM | 5.47 µM (inactive) | 6.68 µM (inactive) | 6.22 µM (inactive) | > 100 µM (inactive) | 14.4 µM (inactive) | 14.5 µM (inactive) | 19.8 µM (inactive) | 14.2 µM (inactive) | 10.3 µM (inactive) | 4.85 µM (inactive)
3 | S=C(/N=C1/NCC(CN2CCN(c3ccccc3)CC2)O1)Nc1ccccc1 (stereo not given) | > 100 µM (inactive) | 48.3 µM (inactive) | 52.7 µM (inactive) | 37.5 µM (inactive) | 27.5 µM (inactive) | > 100 µM (inactive) | > 100 µM (inactive) | 73.3 µM (inactive) | 65.2 µM (inactive) | 32.4 µM | 35.6 µM (inactive) | 25 µM (inactive) | 35.3 µM (inactive) | > 100 µM (inactive) | > 100 µM (inactive) | 77.3 µM (inactive) | 61 µM (inactive) | 49 µM (inactive) | > 100 µM (inactive) | 39.8 µM (inactive)
4 | COc1cc2nc3n(c2cc1OC)C(O)c1c(Cl)nc(SC)nc1S3 (stereo not given) | 2.6 µM (inactive) | 2.46 µM (inactive) | 3.33 µM (inactive) | 2.16 µM (inactive) | 1.98 µM (inactive) | 3.59 µM (inactive) | 6.47 µM (inactive) | 7.24 µM (inactive) | 2.68 µM (inactive) | 2.64 µM | 2 µM (inactive) | 1.7 µM (inactive) | 1.92 µM (inactive) | 3.35 µM (inactive) | 5.46 µM (inactive) | 3.72 µM (inactive) | 5.08 µM (inactive) | 7.4 µM (inactive) | 1.2 µM (inactive) | 2.3 µM (inactive)
5 | COc1ccc(-n2c(Cn3nnc(-c4cccnc4)n3)nn(C3OC(COC(=O)c4ccccc4)C(OC(=O)c4ccccc4)C3OC(=O)c3ccccc3)c2=S)cc1 (stereo not given) | 32.4 µM (inactive) | > 100 µM (inactive) | > 100 µM (inactive) | > 100 µM (inactive) | > 100 µM (inactive) | > 100 µM (inactive) | 74 µM (inactive) | > 100 µM (inactive) | > 100 µM (inactive) | > 100 µM | > 100 µM (inactive) | > 100 µM (inactive) | > 100 µM (inactive) | 14.2 µM (inactive) | > 100 µM (inactive) | > 100 µM (inactive) | > 100 µM (inactive) | > 100 µM (inactive) | > 100 µM (inactive) | > 100 µM (inactive)
6 | COC(=O)c1ccccc1Nc1nc(-c2cccs2)nc2cc(OC)c(OC)cc12 | 14.7 µM (inactive) | 37.5 µM (inactive) | > 100 µM (inactive) | > 100 µM (inactive) | 57.9 µM (inactive) | 55.7 µM (inactive) | 33.1 µM (inactive) | 39.4 µM (inactive) | 71.8 µM (inactive) | 90.2 µM | 64.7 µM (inactive) | 39.4 µM (inactive) | > 100 µM (inactive) | 23.4 µM (inactive) | 28.3 µM (inactive) | 18.3 µM (inactive) | 54 µM (inactive) | 29.2 µM (inactive) | 61 µM (inactive) | 68.1 µM (inactive)
7 | CCCCNCC(=O)O[C@]1(CC)C(=O)OCc2c1cc1n(c2=O)Cc2cc3ccccc3nc2-1 | 2.3 µM (inactive) | 0.407 µM (active) | 0.0836 µM (active) | 0.391 µM (active) | 0.017 µM (active) | 0.658 µM (active) | 0.0542 µM (active) | 0.0647 µM (active) | 1.63 µM (inactive) | 2.15 µM | 3.14 µM (inactive) | 0.0721 µM (active) | 0.277 µM (active) | 0.105 µM (active) | 6.15 µM (inactive) | < 0.0277 µM (active) | 0.185 µM (active) | 0.0705 µM (active) | 2.84 µM (inactive) | 0.385 µM (active)
8 | O=C(O)CNC(=O)c1ccccc1O [SALICYLURIC ACID] | > 100 µM (inactive) | > 100 µM (inactive) | > 100 µM (inactive) | > 100 µM (inactive) | > 100 µM (inactive) | > 100 µM (inactive) | > 100 µM (inactive) | > 100 µM (inactive) | > 100 µM (inactive) | > 100 µM | > 100 µM (inactive) | > 100 µM (inactive) | > 100 µM (inactive) | > 100 µM (inactive) | > 100 µM (inactive) | > 100 µM (inactive) | > 100 µM (inactive) | > 100 µM (inactive) | > 100 µM (inactive) | > 100 µM (inactive)
9 | O=C(O)COc1cccc2ccccc(=O)c12 | > 100 µM (inactive) | > 100 µM (inactive) | > 100 µM (inactive) | > 100 µM (inactive) | > 100 µM (inactive) | > 100 µM (inactive) | > 100 µM (inactive) | > 100 µM (inactive) | > 100 µM (inactive) | > 100 µM | > 100 µM (inactive) | > 100 µM (inactive) | > 100 µM (inactive) | > 100 µM (inactive) | > 100 µM (inactive) | > 100 µM (inactive) | > 100 µM (inactive) | > 100 µM (inactive) | > 100 µM (inactive) | > 100 µM (inactive)
